From the NIST ThermoML archive (doi:10.1021/acs.jced.5b00049)
Numbers after ± are expanded uncertainties.

Experiment: xn = mol fraction of the nth substance listed
Conditions: Liquid

CCCCCCCCCCCCCC [tetradecane] + O=C=O
Conditions | mass density [kg/m3]
312.99 K, 19070 kPa, x2 = 0.7534 | 819.95 ± 1.2
313 K, 15040 kPa, x2 = 0.7534 | 811.66 ± 1.2
313.01 K, 17010 kPa, x2 = 0.7534 | 815.79 ± 1.2
313.01 K, 18060 kPa, x2 = 0.7534 | 817.99 ± 1.2
313.05 K, 10040 kPa, x2 = 0.7534 | 799.71 ± 1.1
313.05 K, 11940 kPa, x2 = 0.7534 | 804.49 ± 1.2
313.07 K, 10010 kPa, x2 = 0.2469 | 761.87 ± 1.1
313.08 K, 12050 kPa, x2 = 0.2469 | 763.39 ± 1.1
313.08 K, 13990 kPa, x2 = 0.2469 | 764.87 ± 1.1
313.08 K, 16020 kPa, x2 = 0.2469 | 766.36 ± 1.1
313.09 K, 18000 kPa, x2 = 0.2469 | 767.75 ± 1.1
313.11 K, 19000 kPa, x2 = 0.2469 | 768.47 ± 1.1
313.12 K, 13940 kPa, x2 = 0.7534 | 809.04 ± 1.2
313.12 K, 19060 kPa, x2 = 0.8773 | 833.41 ± 1.2
313.13 K, 16010 kPa, x2 = 0.7534 | 813.59 ± 1.2
313.14 K, 13040 kPa, x2 = 0.7534 | 806.93 ± 1.2
313.16 K, 11930 kPa, x2 = 0.5241 | 778.74 ± 1.1
313.16 K, 19060 kPa, x2 = 0.5241 | 785.72 ± 1.1
313.17 K, 12990 kPa, x2 = 0.8773 | 810.26 ± 1.2
313.17 K, 13930 kPa, x2 = 0.5241 | 780.74 ± 1.1
313.17 K, 14050 kPa, x2 = 0.8773 | 813.95 ± 1.2
313.18 K, 16020 kPa, x2 = 0.8773 | 822.71 ± 1.2
313.18 K, 17010 kPa, x2 = 0.8773 | 826.33 ± 1.2
313.19 K, 9970 kPa, x2 = 0.8773 | 799.39 ± 1.1
313.19 K, 10110 kPa, x2 = 0.5241 | 776.82 ± 1.1
313.19 K, 18040 kPa, x2 = 0.8773 | 829.7 ± 1.2
313.2 K, 11990 kPa, x2 = 0.8773 | 806.52 ± 1.2
313.21 K, 18060 kPa, x2 = 0.5241 | 784.76 ± 1.1
313.23 K, 15010 kPa, x2 = 0.8773 | 818.7 ± 1.2
313.35 K, 16050 kPa, x2 = 0.5241 | 782.84 ± 1.1
323.11 K, 10980 kPa, x2 = 0.8773 | 783.24 ± 1.1
323.11 K, 14020 kPa, x2 = 0.2469 | 757.81 ± 1.1
323.11 K, 19020 kPa, x2 = 0.8773 | 809.81 ± 1.2
323.12 K, 16020 kPa, x2 = 0.2469 | 759.35 ± 1.1
323.14 K, 10120 kPa, x2 = 0.2469 | 754.69 ± 1.1
323.14 K, 12060 kPa, x2 = 0.2469 | 756.22 ± 1.1
323.14 K, 13020 kPa, x2 = 0.8773 | 788.73 ± 1.1
323.14 K, 14050 kPa, x2 = 0.8773 | 791.99 ± 1.1
323.14 K, 16040 kPa, x2 = 0.8773 | 799.2 ± 1.1
323.14 K, 17040 kPa, x2 = 0.8773 | 801.18 ± 1.1
323.14 K, 18060 kPa, x2 = 0.8773 | 805.9 ± 1.2
323.14 K, 18980 kPa, x2 = 0.2469 | 761.61 ± 1.1
323.15 K, 10070 kPa, x2 = 0.7534 | 782.23 ± 1.1
323.15 K, 12030 kPa, x2 = 0.7534 | 787.2 ± 1.1
323.15 K, 12050 kPa, x2 = 0.8773 | 786.07 ± 1.1
323.15 K, 13000 kPa, x2 = 0.7534 | 789.82 ± 1.1
323.15 K, 14020 kPa, x2 = 0.7534 | 791.84 ± 1.1
323.15 K, 15060 kPa, x2 = 0.7534 | 794.75 ± 1.1
323.15 K, 16040 kPa, x2 = 0.7534 | 796.67 ± 1.1
323.15 K, 17010 kPa, x2 = 0.7534 | 799.28 ± 1.1
323.15 K, 18070 kPa, x2 = 0.7534 | 801.5 ± 1.2
323.15 K, 19020 kPa, x2 = 0.7534 | 803.65 ± 1.2
323.16 K, 15050 kPa, x2 = 0.8773 | 795.16 ± 1.1
323.19 K, 17960 kPa, x2 = 0.2469 | 760.81 ± 1.1
323.21 K, 16080 kPa, x2 = 0.5241 | 773.72 ± 1.1
323.22 K, 18050 kPa, x2 = 0.5241 | 775.72 ± 1.1
323.22 K, 19040 kPa, x2 = 0.5241 | 776.7 ± 1.1
323.23 K, 10030 kPa, x2 = 0.5241 | 767.22 ± 1.1
323.23 K, 12040 kPa, x2 = 0.5241 | 769.42 ± 1.1
323.23 K, 13980 kPa, x2 = 0.5241 | 771.51 ± 1.1
333.07 K, 10050 kPa, x2 = 0.7534 | 764.82 ± 1.1
333.07 K, 14030 kPa, x2 = 0.7534 | 774.55 ± 1.1
333.07 K, 17060 kPa, x2 = 0.7534 | 782.56 ± 1.1
333.07 K, 18060 kPa, x2 = 0.7534 | 784.44 ± 1.1
333.09 K, 10100 kPa, x2 = 0.5241 | 757.94 ± 1.1
333.11 K, 13040 kPa, x2 = 0.7534 | 771.85 ± 1.1
333.11 K, 16040 kPa, x2 = 0.2469 | 752.33 ± 1.1
333.11 K, 18060 kPa, x2 = 0.5241 | 766.9 ± 1.1
333.11 K, 18060 kPa, x2 = 0.8773 | 785.49 ± 1.1
333.12 K, 15020 kPa, x2 = 0.7534 | 777.38 ± 1.1
333.12 K, 16040 kPa, x2 = 0.7534 | 779.31 ± 1.1
333.13 K, 10010 kPa, x2 = 0.2469 | 747.3 ± 1.1
333.13 K, 13970 kPa, x2 = 0.2469 | 750.65 ± 1.1
333.13 K, 19050 kPa, x2 = 0.8773 | 788.14 ± 1.1
333.13 K, 19080 kPa, x2 = 0.5241 | 767.96 ± 1.1
333.14 K, 16050 kPa, x2 = 0.8773 | 779.75 ± 1.1
333.14 K, 17040 kPa, x2 = 0.8773 | 782.59 ± 1.1
333.15 K, 11930 kPa, x2 = 0.5241 | 760.02 ± 1.1
333.15 K, 12060 kPa, x2 = 0.2469 | 749.05 ± 1.1
333.15 K, 15990 kPa, x2 = 0.5241 | 764.66 ± 1.1
333.15 K, 17980 kPa, x2 = 0.2469 | 753.84 ± 1.1
333.16 K, 18980 kPa, x2 = 0.2469 | 754.7 ± 1.1
333.17 K, 12050 kPa, x2 = 0.7534 | 769.75 ± 1.1
333.17 K, 19050 kPa, x2 = 0.7534 | 786.81 ± 1.1
333.18 K, 14030 kPa, x2 = 0.8773 | 774.07 ± 1.1
333.19 K, 13020 kPa, x2 = 0.8773 | 771.46 ± 1.1
333.2 K, 13970 kPa, x2 = 0.5241 | 762.35 ± 1.1
333.22 K, 15040 kPa, x2 = 0.8773 | 776.33 ± 1.1
343.18 K, 13030 kPa, x2 = 0.7534 | 757.6 ± 1.1
343.2 K, 14070 kPa, x2 = 0.7534 | 759.71 ± 1.1
343.22 K, 10080 kPa, x2 = 0.5241 | 748.36 ± 1.1
343.24 K, 18020 kPa, x2 = 0.2469 | 746.97 ± 1.1
343.25 K, 10080 kPa, x2 = 0.2469 | 739.8 ± 1.1
343.25 K, 12000 kPa, x2 = 0.2469 | 741.71 ± 1.1
343.25 K, 13970 kPa, x2 = 0.5241 | 753.12 ± 1.1
343.26 K, 11930 kPa, x2 = 0.5241 | 750.66 ± 1.1
343.26 K, 17070 kPa, x2 = 0.8773 | 763.58 ± 1.1
343.27 K, 16010 kPa, x2 = 0.2469 | 745.25 ± 1.1
343.27 K, 19050 kPa, x2 = 0.2469 | 747.79 ± 1.1
343.28 K, 16050 kPa, x2 = 0.8773 | 759.7 ± 1.1
343.28 K, 18030 kPa, x2 = 0.7534 | 768.86 ± 1.1
343.29 K, 11990 kPa, x2 = 0.7534 | 755.9 ± 1.1
343.29 K, 15010 kPa, x2 = 0.8773 | 756.06 ± 1.1
343.3 K, 18040 kPa, x2 = 0.8773 | 766.93 ± 1.1
343.32 K, 15970 kPa, x2 = 0.7534 | 764.11 ± 1.1
343.32 K, 19050 kPa, x2 = 0.8773 | 770.12 ± 1.1
343.34 K, 14060 kPa, x2 = 0.2469 | 743.54 ± 1.1
343.34 K, 16930 kPa, x2 = 0.7534 | 766.37 ± 1.1
343.36 K, 18040 kPa, x2 = 0.5241 | 757.81 ± 1.1
343.37 K, 15000 kPa, x2 = 0.7534 | 761.76 ± 1.1
343.37 K, 15990 kPa, x2 = 0.5241 | 755.45 ± 1.1
343.37 K, 19030 kPa, x2 = 0.7534 | 770.9 ± 1.1
343.39 K, 19080 kPa, x2 = 0.5241 | 758.96 ± 1.1
353.36 K, 9980 kPa, x2 = 0.5241 | 738.86 ± 1.1
353.36 K, 12050 kPa, x2 = 0.7534 | 743.36 ± 1.1
353.39 K, 11960 kPa, x2 = 0.5241 | 741.42 ± 1.1
353.39 K, 17030 kPa, x2 = 0.7534 | 753.15 ± 1.1
353.39 K, 18060 kPa, x2 = 0.5241 | 748.96 ± 1.1
353.4 K, 18070 kPa, x2 = 0.2469 | 741.03 ± 1.1
353.41 K, 13000 kPa, x2 = 0.7534 | 744.77 ± 1.1
353.43 K, 11990 kPa, x2 = 0.2469 | 735.13 ± 1.1
353.43 K, 14020 kPa, x2 = 0.5241 | 744.02 ± 1.1
353.43 K, 16060 kPa, x2 = 0.5241 | 746.56 ± 1.1
353.44 K, 19060 kPa, x2 = 0.5241 | 750.06 ± 1.1
353.46 K, 15040 kPa, x2 = 0.7534 | 748.68 ± 1.1
353.46 K, 15990 kPa, x2 = 0.7534 | 750.82 ± 1.1
353.46 K, 18010 kPa, x2 = 0.8773 | 751.14 ± 1.1
353.46 K, 18040 kPa, x2 = 0.7534 | 755.21 ± 1.1
353.47 K, 14010 kPa, x2 = 0.7534 | 746.82 ± 1.1
353.47 K, 19020 kPa, x2 = 0.2469 | 741.82 ± 1.1
353.47 K, 19040 kPa, x2 = 0.8773 | 754.52 ± 1.1
353.48 K, 9970 kPa, x2 = 0.2469 | 733.1 ± 1.1
353.48 K, 14000 kPa, x2 = 0.2469 | 737.01 ± 1.1
353.48 K, 17020 kPa, x2 = 0.8773 | 747.37 ± 1.1
353.52 K, 16030 kPa, x2 = 0.2469 | 738.93 ± 1.1
353.54 K, 18990 kPa, x2 = 0.7534 | 756.97 ± 1.1
